The source made the active and inactive calls. The calls are words filed in the database; no cut-off is given here. Non-standard residues stand in square brackets, D forms with d. Residues, ends and D or L forms follow the SMILES beside them. *: point of attachment. X1 = OC[C@H]1O[C@@H](O[C@H]2[C@H](O)[C@@H](O)[C@@H](*)O[C@@H]2CO)[C@H](O)[C@@H](O)[C@H]1O; βGal = OC[C@H]1O[C@@H](*)[C@H](O)[C@@H](O)[C@H]1O; X2 = OC[C@H]1O[C@@H](N*)[C@H](O)[C@@H](O)[C@H]1O; Cha = N[C@@H](CC1CCCCC1)C(=O)O
Legend:
CAPAN-1 = test: Inhibition of carbohydrate-dependent galectin1 binding to human Capan1 cell surface at 2mM; format: functional; set-up: scale not given: the % may be the effect or the level left
[1] = molecular target: Galectin-1 (Homo sapiens) (UniProt P09382); test: Inhibition of carbohydrate-dependent human galectin1 binding at 10 mM by solid phase assay
Chain of Galectin-1 (Homo sapiens) (P09382 whole entry): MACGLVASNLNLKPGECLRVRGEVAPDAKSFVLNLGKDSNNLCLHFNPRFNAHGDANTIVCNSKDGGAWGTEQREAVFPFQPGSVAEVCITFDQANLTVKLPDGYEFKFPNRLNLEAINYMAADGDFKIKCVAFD

[2] = molecular target: Galectin-3 (Homo sapiens) (UniProt P17931); test: Inhibition of carbohydrate-dependent human galectin3 binding at 10 mM by solid phase assay
Chain of Galectin-3 (Homo sapiens) (P17931 whole entry): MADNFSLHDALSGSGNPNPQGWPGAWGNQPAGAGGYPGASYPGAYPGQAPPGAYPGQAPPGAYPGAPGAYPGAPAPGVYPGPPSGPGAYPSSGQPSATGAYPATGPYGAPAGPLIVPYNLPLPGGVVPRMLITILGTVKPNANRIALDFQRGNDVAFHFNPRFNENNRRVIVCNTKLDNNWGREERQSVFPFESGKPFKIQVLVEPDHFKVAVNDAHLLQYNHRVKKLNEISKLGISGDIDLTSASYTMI

SW480 [3] = test: Inhibition of carbohydrate-dependent galectin3 binding to human SW480 cell surface at 1mM; format: functional; set-up: scale not given: the % may be the effect or the level left
SW480 [4] = test: Inhibition of carbohydrate-dependent galectin3 binding to human SW480 cell surface at 0.5mM; format: functional, cell-based; set-up: scale not given: the % may be the effect or the level left
SW480 [5] = test: Inhibition of carbohydrate-dependent galectin3 binding to human SW480 cell surface at 5 mM; format: functional, cell-based; set-up: scale not given: the % may be the effect or the level left
SW480 [6] = test: Inhibition of carbohydrate-dependent galectin3 binding to human SW480 cell surface at 2mM; format: functional, cell-based; set-up: scale not given: the % may be the effect or the level left

Row | Compound | inhibition [1] | inhibition [2] | further results
1 | CSCC[C@H](NC(=O)[C@@H](N)[C@@H](C)O[C@H]1O[C@H](CO)[C@@H](O[C@@H]2O[C@H](CO)[C@H](O)[C@H](O)[C@H]2O)[C@H](O)[C@H]1O)C(=O)N[C@@H](CCCNC(=N)N)C(=O)N[C@@H](C)C(=O)N[C@H](C(=O)N[C@@H](CC1CCCCC1)C(=O)O)[C@@H](C)O[C@H]1O[C@H](CO)[C@@H](O[C@@H]2O[C@H](CO)[C@H](O)[C@H](O)[C@H]2O)[C@H](O)[C@H]1O | 38% |  | Activity (CAPAN-1): 22%
2 | CC[C@H](C)[C@H](NC(=O)[C@H](Cc1ccccc1)NC(=O)[C@@H]1CCCN1)C(=O)N[C@@H](CC1CCCCC1)C(=O)N[C@@H](Cc1ccccc1)C(=O)N[C@@H](CCC(N)=O)C(=O)O | 14% |  | 
3 | CSCC[C@H](N)C(=O)N[C@@H](CCCNC(=N)N)C(=O)N[C@H](C(=O)N[C@@H](CCCNC(=N)N)C(=O)N[C@H](C(=O)N[C@@H](CCCNC(=N)N)C(=O)O)[C@@H](C)O[C@H]1O[C@H](CO)[C@@H](O[C@@H]2O[C@H](CO)[C@H](O)[C@H](O)[C@H]2O)[C@H](O)[C@H]1O)[C@@H](C)O[C@H]1O[C@H](CO)[C@@H](O[C@@H]2O[C@H](CO)[C@H](O)[C@H](O)[C@H]2O)[C@H](O)[C@H]1O |  | inactive | 
4 | C[C@@H](O)[C@H](NC(=O)[C@H](Cc1ccc(O)cc1)NC(=O)[C@H](CC1CCCCC1)NC(=O)[C@H](Cc1cnc[nH]1)NC(=O)[C@H](CC1CCCCC1)NC(=O)[C@@H](N)Cc1ccc(O)cc1)C(=O)O | 9% |  | 
5 | C[C@H](NC(=O)[C@@H](N)[C@@H](C)O[C@H]1O[C@H](CO)[C@@H](O[C@@H]2O[C@H](CO)[C@H](O)[C@H](O)[C@H]2O)[C@H](O)[C@H]1O)C(=O)N[C@@H](CC(N)=O)C(=O)N[C@@H](Cc1ccc(O)cc1)C(=O)N[C@H](C(=O)N[C@@H](CCCNC(=N)N)C(=O)O)[C@@H](C)O[C@H]1O[C@H](CO)[C@@H](O[C@@H]2O[C@H](CO)[C@H](O)[C@H](O)[C@H]2O)[C@H](O)[C@H]1O |  | 15% | 
6 | OC[C@H]1O[C@@H](O)[C@H](O)[C@@H](O)[C@H]1O | 17% | inactive | 
7 | CC[C@H](C)[C@H](NC(=O)[C@@H](NC(=O)[C@H](CCCNC(=N)N)NC(=O)[C@H](CCCNC(=N)N)NC(=O)[C@H](Cc1ccc(O)cc1)NC(=O)[C@H](C)N)[C@@H](C)O[C@H]1O[C@H](CO)[C@@H](O[C@@H]2O[C@H](CO)[C@H](O)[C@H](O)[C@H]2O)[C@H](O)[C@H]1O)C(=O)O (H-AYRRT(X1)I-OH) | inactive |  | 
8 | CC[C@H](C)[C@H](NC(=O)[C@@H](NC(=O)[C@H](CCCNC(=N)N)NC(=O)[C@@H]1CCCN1C(=O)[C@H](CCCNC(=N)N)NC(=O)[C@@H](N)Cc1ccccc1)[C@@H](C)O[C@H]1O[C@H](CO)[C@@H](O[C@@H]2O[C@H](CO)[C@H](O)[C@H](O)[C@H]2O)[C@H](O)[C@H]1O)C(=O)O (H-FRPRT(X1)I-OH) | 3% |  | Activity (CAPAN-1): 12%
9 | CC[C@H](C)[C@H](NC(=O)[C@H](Cc1ccccc1)NC(=O)[C@@H](NC(=O)CN)C(C)C)C(=O)N[C@@H](CC1CCCCC1)C(=O)N[C@@H](C)C(=O)O (H-GVFI[Cha]A-OH) | inactive |  | 
10 | CC(C)[C@H](NC(=O)[C@H](Cc1cnc[nH]1)NC(=O)[C@@H](N)Cc1cnc[nH]1)C(=O)N[C@@H](Cc1ccc(O)cc1)C(=O)N[C@@H](Cc1ccc(O)cc1)C(=O)N[C@@H](Cc1cnc[nH]1)C(=O)O (H-HHVYYH-OH) |  | inactive | 
11 | CC[C@H](C)[C@H](N)C(=O)N[C@@H](Cc1ccccc1)C(=O)N[C@@H](CCCNC(=N)N)C(=O)N[C@@H](CC1CCCCC1)C(=O)N[C@@H](CCCNC(=N)N)C(=O)N[C@@H](Cc1ccc(O)cc1)C(=O)O (H-IFR[Cha]RY-OH) | 70% |  | 
12 | CSCC[C@H](N)C(=O)N[C@@H](Cc1ccccc1)C(=O)N[C@H](C(=O)N[C@@H](CC1CCCCC1)C(=O)N[C@@H](CC1CCCCC1)C(=O)N[C@@H](CCCNC(=N)N)C(=O)O)C(C)C (H-MFV[Cha][Cha]R-OH) | 22% |  | 
13 | CC[C@H](C)[C@H](NC(=O)[C@H](CCCNC(=N)N)NC(=O)[C@@H](NC(=O)[C@H](Cc1ccccc1)NC(=O)[C@@H](NC(=O)[C@@H](N)CC(N)=O)[C@@H](C)O[C@H]1O[C@H](CO)[C@@H](O[C@@H]2O[C@H](CO)[C@H](O)[C@H](O)[C@H]2O)[C@H](O)[C@H]1O)C(C)C)C(=O)O (H-NT(X1)FVRI-OH) |  | 44% | Activity (SW480 [3]): 40%
14 | O=C(O)[C@H](Cc1ccccc1)NC(=O)[C@H](Cc1ccccc1)NC(=O)[C@H](Cc1ccccc1)NC(=O)[C@H](Cc1ccccc1)NC(=O)[C@H](Cc1ccccc1)NC(=O)[C@@H]1CCCN1 (H-PFFFFF-OH) |  | 76% | 
15 | CC[C@H](C)[C@H](NC(=O)[C@H](Cc1ccccc1)NC(=O)[C@H](Cc1ccccc1)NC(=O)[C@@H]1CCCN1)C(=O)N[C@@H](CO)C(=O)N[C@@H](CCCNC(=N)N)C(=O)O (H-PFFISR-OH) | 9% |  | Activity (SW480 [3]): 63%
16 | CC[C@H](C)[C@H](NC(=O)[C@@H]1CCCN1)C(=O)N[C@@H](Cc1ccccc1)C(=O)N[C@H](C(=O)N[C@@H](CCCNC(=N)N)C(=O)N[C@@H](CCCNC(=N)N)C(=O)O)[C@@H](C)O[C@H]1O[C@H](CO)[C@@H](O[C@@H]2O[C@H](CO)[C@H](O)[C@H](O)[C@H]2O)[C@H](O)[C@H]1O (H-PIFT(X1)RR-OH) | inactive |  | 
17 | CC(C)[C@H](NC(=O)[C@@H](NC(=O)[C@@H]1CCCN1)[C@@H](C)O[C@H]1O[C@H](CO)[C@@H](O[C@@H]2O[C@H](CO)[C@H](O)[C@H](O)[C@H]2O)[C@H](O)[C@H]1O)C(=O)N[C@@H](C)C(=O)N1CCC[C@H]1C(=O)N[C@@H](CCCNC(=N)N)C(=O)O (H-PT(X1)VAPR-OH) |  | inactive | 
18 | CC[C@H](C)[C@H](NC(=O)[C@@H](NC(=O)[C@@H]1CCCN1)[C@@H](C)O)C(=O)N[C@@H](Cc1ccccc1)C(=O)N[C@@H](Cc1ccccc1)C(=O)N[C@@H](Cc1ccccc1)C(=O)O (H-PTIFFF-OH) | inactive |  | 
19 | CC(C)[C@H](NC(=O)[C@H](CC1CCCCC1)NC(=O)[C@H](CC(N)=O)NC(=O)[C@H](CC1CCCCC1)NC(=O)[C@@H]1CCCN1)C(=O)N[C@@H](Cc1ccc(O)cc1)C(=O)O (H-P[Cha]N[Cha]VY-OH) | 67% |  | 
20 | CC(C)[C@H](NC(=O)[C@@H](N)CCCNC(=N)N)C(=O)N[C@@H](Cc1cnc[nH]1)C(=O)N[C@@H](Cc1ccc(O)cc1)C(=O)N[C@H](C(=O)N[C@@H](CCCNC(=N)N)C(=O)O)[C@@H](C)O[C@H]1O[C@H](CO)[C@@H](O[C@@H]2O[C@H](CO)[C@H](O)[C@H](O)[C@H]2O)[C@H](O)[C@H]1O (H-RVHYT(X1)R-OH) |  | inactive | Activity (SW480 [3]): 35%
21 | C[C@H](NC(=O)[C@@H](N)CO)C(=O)N[C@@H](CO)C(=O)N[C@@H](CO)C(=O)N[C@H](C(=O)N[C@@H](CCCNC(=N)N)C(=O)O)[C@@H](C)O[C@H]1O[C@H](CO)[C@@H](O[C@@H]2O[C@H](CO)[C@H](O)[C@H](O)[C@H]2O)[C@H](O)[C@H]1O (H-SASST(X1)R-OH) | 22% |  | 
22 | CC[C@H](C)[C@H](NC(=O)[C@H](Cc1ccccc1)NC(=O)[C@H](CCCNC(=N)N)NC(=O)[C@H](CCCNC(=N)N)NC(=O)[C@H](CC1CCCCC1)NC(=O)[C@@H](N)[C@@H](C)O[C@H]1O[C@H](CO)[C@@H](O[C@@H]2O[C@H](CO)[C@H](O)[C@H](O)[C@H]2O)[C@H](O)[C@H]1O)C(=O)O (H-T(X1)[Cha]RRFI-OH) | inactive |  | Activity (SW480 [3]): 34%
23 | CC[C@H](C)[C@H](NC(=O)[C@@H](N)[C@@H](C)O[C@@H]1O[C@H](CO)[C@H](O)[C@H](O)[C@H]1O)C(=O)N[C@H](C(=O)N[C@@H](CCC(N)=O)C(=O)N[C@@H](CC1CCCCC1)C(=O)N[C@@H](Cc1ccc(O)cc1)C(=O)O)[C@@H](C)CC (H-T(βGal)IIQ[Cha]Y-OH) | inactive |  | Activity (SW480 [3]): 77%
24 | CC[C@H](C)[C@H](NC(=O)[C@@H](NC(=O)[C@@H](N)CC1CCCCC1)C(C)C)C(=O)N[C@@H](CC(=O)N[C@@H]1O[C@H](CO)[C@H](O)[C@H](O)[C@H]1O)C(=O)N[C@@H](Cc1ccc(O)cc1)C(=O)N[C@@H](CCC(N)=O)C(=O)O (H-[Cha]VID(X2)YQ-OH) | inactive |  | 
25 | CSCC[C@H](NC(=O)[C@@H]1CCCN1C(=O)[C@H](CCCNC(=N)N)NC(=O)[C@H](CC1CCCCC1)NC(=O)[C@@H](N)CC1CCCCC1)C(=O)N[C@@H](CCCNC(=N)N)C(=O)O (H-[Cha][Cha]RPMR-OH) |  | 28% | 
26 | LACTOSE, ANHYDROUS | 54% | 44% | Activity (SW480 [3]): 44%; Activity (SW480 [4]): 43%; Activity (SW480 [5]): 10%; Activity (SW480 [6]): 24%
